What was measured:
[1] = system: zebrafish intersegmental vessels; assay: Quantification of intersegmental vessel number in zebrafish; format: in vivo
Protocol: […] Larvae were manually dechorionated, euthanised, and fixed in 4% PFA at 4° C. overnight before analysis. The larvae were then washed with PBS and transferred to depression slides for observation under epi-fluorescence in an Olympus SZX16 fluorescent microscope. The number of intersegmental vessels was counted and the average number was graphed for each drug.
Larvae were manually dechorionated, euthanised, and fixed in 4% PFA at 4° C. overnight before analysis. The larvae were then washed with PBS and transferred to depression slides for observation under epi-fluorescence in an Olympus SZX16 fluorescent microscope. The number of intersegmental vessels was counted and the average number was graphed for each drug.

[2] = system: zebrafish hyaloid vasculature; assay: Quantification of primary hyaloid vasculature branch number in Tg(fli1:EGFP) zebrafish; format: in vivo; conditions: for inhibition of developmental angiogenesis of the hyaloid vasculature (number of primary hyaloid vessels): typically 10 μM or 5 μM, from 24 hpf, vs DMSO control; for dose-dependent inhibition of development of hyaloid vessels: decreasing doses 20, 10, 7.5, 5, 2.5, 1 and/or 0.5 μM
Protocol: (§1) All experiments were carried out under ethical approval granted by the UCD animal research ethics committee. Tg(fli1:EGFP) zebrafish were maintained according to standard procedures on a 14 hr light/10 hr dark cycle at 28° C. Embryos were obtained by natural spawning and developmental stages established by time and morphological criteria. […] Larvae were euthanised, and fixed in 4% PFA at 4° C. overnight before analysis.
Overall patterning of the vasculature (fin, gut and intersegmental vessels) was examined for abnormalities. Right lenses were dissected from the larvae and transferred to depression slides for observation under epi-fluorescence in the Olympus SZX16. Patterning of the hyaloid vessels on the treated larval lenses was compared to DMSO controls and the archetypal pattern previously described (Alvarez et al., 2007; Alvarez et al., 2009).
as §1, with “analysis. Lenses were dissected from the larvae and transferred to depression slides for observation under epi-fluorescence in the Olympus SZX16. Patterning of the hyaloid vessels on the treated larval lenses was compared to DMSO controls and the archetypal pattern previously described (Alvarez et al., 2007; Alvarez et al., 2009).” for “analysis.”

Row | SMILES | inhibition of developmental angiogenesis of intersegmental vessels (number of intersegmental vessels) ([1]; 10 μM, from 6 hpf) | inhibition of developmental angiogenesis of the hyaloid vasculature (number of primary hyaloid vessels) [2] | also measured
1 | Cl.Oc1cccc(C=Cc2ccc3ccccc3n2)c1 [Compound 11B_CC2_HCl, 3-(2-Quinolin-2-yl-vinyl)-phenol HCl salt] | inhibit developmental angiogenesis of zebrafish intersegmental vessels in a statistically significant manner | inhibit developmental angiogenesis of the zebrafish hyaloid vasculature in a statistically significant manner | –
2 | Cl.Oc1cccc(C#Cc2ccc3ccccc3n2)c1 [Compound 11B_CC15_HCl, 3-Quinolin-2-yl-ylethynyl-phenol HCl salt] | inhibit developmental angiogenesis of zebrafish intersegmental vessels in a statistically significant manner | – | –
3 | Oc1ccccc1/C=C/c1cc(O)c2ccccc2n1 [Compound 11B-470, 2-[(E)-2-(2-Hydroxyphenyl)vinyl]-4-quinolinol] | inhibit developmental angiogenesis of zebrafish intersegmental vessels in a statistically significant manner | – | –
4 | Cl.Oc1cccc(CCc2ccc3ccccc3n2)c1 [Compound 11B_CC5_HCl, 3-(2-Quinolin-2-yl-ethyl)-phenol HCl salt] | inhibit developmental angiogenesis of zebrafish intersegmental vessels in a statistically significant manner | inhibit developmental angiogenesis of the zebrafish hyaloid vasculature in a statistically significant manner | dose-dependent inhibition of development of hyaloid vessels ([2]; HCl salt): inhibit developmental angiogenesis of zebrafish hyaloid vasculature in a dose-dependent statistically significant manner; dose-dependent inhibition of development of hyaloid vessels ([2]; listed as 11B-CC5 HCl, HCl salt): dose-dependent effect
5 | Oc1ccc(-c2ccc3c(c2)OCO3)cc1CN1CCc2ccccc2C1 [Compound 11F-978, 4-(1,3-benzodioxol-5-yl)-2-(3,4-dihydro-2(1H)-isoquinolinylmethyl)phenol] | – | inhibit developmental angiogenesis of the zebrafish hyaloid vasculature in a statistically significant manner | –
6 | Cl.Oc1ccccc1CCc1ccc2ccccc2n1 [Compound 11B_CC4_HCl, 2-(2-Quinolin-2-yl-ethyl)-phenol HCl salt] | inhibit developmental angiogenesis of zebrafish intersegmental vessels in a statistically significant manner | inhibit developmental angiogenesis of the zebrafish hyaloid vasculature in a statistically significant manner | dose-dependent inhibition of development of hyaloid vessels ([2]; HCl salt): inhibit developmental angiogenesis of zebrafish hyaloid vasculature in a dose-dependent statistically significant manner; dose-dependent inhibition of development of hyaloid vessels ([2]; listed as 11B-CC4 HCl, HCl salt): dose-dependent effect
7 | CCN1CCc2cc(OC)c(OC)cc2C1c1ccc2c(c1)OCO2 (racemic) [Compound 11F-CC10, (rac)-1-Benzo[1,3]dioxol-5-yl-6,7-dimethoxy-2-ethyl-1,2,3,4-tetrahydro-isoquinoline] | – | inhibit developmental angiogenesis of the zebrafish hyaloid vasculature in a statistically significant manner | –
8 | CCOc1ccccc1C=Cc1ccc2cccc(O)c2n1 [Compound 11B-739, 2-[2-(2-ethoxyphenyl)vinyl]-8-quinolinol] | – | inhibit developmental angiogenesis of the zebrafish hyaloid vasculature in a statistically significant manner | –
9 | Cc1cccc(/C=C/c2ccc3cccc(O)c3n2)c1O [Compound 11B-438, 2-[(E)-2-(2-Hydroxy-3-methylphenyl)vinyl]-8-quinolinol] | inhibit developmental angiogenesis of zebrafish intersegmental vessels in a statistically significant manner | inhibit developmental angiogenesis of the zebrafish hyaloid vasculature in a statistically significant manner | –
10 | COc1ccc(Br)cc1C=Cc1ccc2ccccc2n1 [Compound 11B-074, 2-[2-(5-bromo-2-methoxyphenyl)vinyl]quinoline] | – | inhibit developmental angiogenesis of the zebrafish hyaloid vasculature in a statistically significant manner | –
11 | COc1cc(CN2CCc3ccccc3C2)cc2c1OCO2 [Compound 11F-708, 2-[(7-methoxy-1,3-benzodioxol-5-yl)methyl]-1,2,3,4-tetrahydroisoquinoline] | – | inhibit developmental angiogenesis of the zebrafish hyaloid vasculature in a statistically significant manner | –
12 | CCOc1cc2c(cc1OCC)C(c1cc3c(cc1Br)OCO3)NCC2 (stereo not shown) [Compound 11F-001, 1-(6-bromo-1,3-benzodioxol-5-yl)-6,7-diethoxy-1,2,3,4-tetrahydroisoquinoline] | – | inhibit developmental angiogenesis of the zebrafish hyaloid vasculature in a statistically significant manner | –
13 | Oc1ccc(O)c(/C=C/c2ccc3ccccc3n2)c1 [Compound 11B_CC12, (E)-2-(2-Quinolin-2-yl-vinyl)--benzene-1,4-diol] | – | – | inhibition of developmental angiogenesis of intersegmental vessels (number of intersegmental vessels) ([1]; 11B_CC12 tested at 2.5 μM, n=2): inhibit developmental angiogenesis of zebrafish intersegmental vessels in a statistically significant manner
14 | Cl.Oc1ccc(C=Cc2ccc3ccccc3n2)cc1 [Compound 11B_CC3_HCl, 4-(2-Quinolin-2-yl-vinyl)-phenol HCl salt] | inhibit developmental angiogenesis of zebrafish intersegmental vessels in a statistically significant manner | – | –
15 | Cc1ccc2nc(/C=C/c3cccc(O)c3)ccc2c1 [Compound 11B-814, 3-[(E)-2-(6-Methyl-2-quinolinyl)vinyl]phenol] | – | inhibit developmental angiogenesis of the zebrafish hyaloid vasculature in a statistically significant manner | dose-dependent inhibition of development of hyaloid vessels [2]: dose-dependent effect
16 | Oc1cccc(CCc2ccc3ccccc3n2)c1 [Compound 11B_CC5, 3-(2-Quinolin-2-yl-ethyl)-phenol] | – | inhibit developmental angiogenesis of the zebrafish hyaloid vasculature in a statistically significant manner | –
17 | Oc1cccc(C#Cc2ccc3ccccc3n2)c1 [Compound 11B_CC15, 3-Quinolin-2-yl-ylethynyl-phenol] | inhibit developmental angiogenesis of zebrafish intersegmental vessels in a statistically significant manner | – | –
18 | Oc1cccc2ccc(C=Cc3ccccc3Cl)nc12 [Compound 11B-736, 2-[2-(2-chlorophenyl)vinyl]-8-quinolinol] | inhibit developmental angiogenesis of zebrafish intersegmental vessels in a statistically significant manner | – | –
19 | COc1ccc(I)cc1C=Cc1ccc2ccccc2n1 [Compound 11B-412, 2-[2-(5-iodo-2-methoxyphenyl)vinyl]quinoline] | inhibit developmental angiogenesis of zebrafish intersegmental vessels in a statistically significant manner | – | –
